This note sets out measurements from patent publication US8865197B2, “Food formulation for aquatic animals with integrated targeted delivery of bioactive agents” (Israel Oceanographic and Limnological Research Ltd., priority 2005, dated 2014).

The subject of this assay is rainbow trout. Description: Cannulation experiment: plasma cortisol response to oral ACTH with gut modulators. It is filed as in vivo, rainbow trout (Oncorhynchus mykiss). The conditions noted are these: for Cumulative plasma cortisol: over a 360 min period, oral ACTH 0.5 mg kg^−1. Here is the method:
Rainbow trout of a weight range of 750-1700 g (Spring Valley Trout Farms, Langley, BC) were immunized against firunculosis and vibriosis by injecting them with 0.2 ml fish^−1 of a 1:1 ratio of VIBRIOGEN and FUROGEN (Microtek, BC, Canada), and stocked in 4,000 liter tanks. The tanks were supplied with well water at a temperature of 10±0.5° C. at about 10 exchanges per day. After 10 days fish were transferred gradually over a period of another 10 days to full strength seawater (25-29 ppt). The temperature of the seawater ranged between 7-9° C. according to season. Only following their acclimation to seawater, after another 10 days, were fish used. […] Fish were fed daily about 1% BW of a 42% protein and 33% crude fat diet (Moore-Clark Co., Canada).
Fish were kept individually in 200 1 fiberglass tub aquaria. Fish in the tanks were confined to one half of the tank with a partition. […] In addition, fish were encouraged to swim against a current, which was generated by a pipe which directed the water inflow to the surface of the tank. The experimental fish were not fed within a given experiment, which normally lasted for 5 days, and were force fed once a week with a 0.5% body weight of a Moore Clark “Royal extrude salmon feed” (42% C.P., 33% C.F.), which was mixed with water at a 1:1 ratio to give a paste which could be intubated into the fish.
Fish were anesthetized in two stages. They were first sedated in metomidate hydrochloride (Marinil, Wildlife laboratories Inc. CO, USA) in a 250 ppb solution in the 4000 liter holding tanks with the water supply turned off. Fish were netted out of the 4,000 liter tanks into 15 liter of well aerated 100 ppm MS222 (3 amino benzoic acid ethyl ester; SIGMA) solution in SW for a deeper anesthesia. Fish were sedated until active gill ventilation ceased at which point they were taken out of the water, weighed and cannulated.
Samples were taken of blood to determine plasma cortisol or hCG. Blood sampling was done in two stages: First a volume equal to the dead volume of the cannula (˜250 μl) was withdrawn and discarded, this was followed by sampling 250-500 μl blood, depending on the RIA assay (cortisol or hCG), into a 1 ml EDTA-Aprotinin coated syringe. The blood samples were kept in 500 μl Eppendorf tubes on ice for up to two hours within which time the tubes were centrifuged at 13,000 rpm for 5 min. The supernatant plasma was removed by disposable Pasteur pipettes into Eppendorff tubes and stored at −40° C. until the RIA. When blood samples were taken for hCG analysis they were centrifuged for 5 minutes at 3750 rpm at 5° C.
To measure plasma cortisol, 20 μl of plasma was applied to a kit by INCSTAR (Minnesota, USA). No significant crossreactivity of this kit was found with dexamethasone (9α-Fluoro-16α-Methyl Predindone, SIGMA), while it crossreacted with cortisol (hydrocortisone; SIGMA), which was used in the clearance rate experiments. Porcine ACTH (SIGMA) which was used for the intubation study elicited a cortisol response in fish but could not be detected reliably by the cortisol RIA. Plasma hCG was also determined based on a RIA (INCSTAR) kit and of the orally applied hCG based on Van der Kraak et al. (1984). ACTH stimulates cortisol production in the interrenal cells of the kidney.

Take `O=c1[nH]c2ccccc2n1CCCN1CCC(n2c(=O)[nH]c3cc(Cl)ccc32)CC1` [DOM, domperidone]: the “gut penetrability to ACTH as reflected by plasma cortisol” value (change relative to no modulator) is “quadrupled”. The same molecule had a Cumulative plasma cortisol (DOM 4.5 mg kg^−1) of 4329 ng/kg. On to ACTH, for which the “cumulative response of cortisol to plasma ACTH” value (DOC molar concentration 0 in the intubation medium (PBS)) was found to be 1454±597 ng cortisol kg^−1. Where the note is “DOM 0 mg kg^−1”, this molecule came in with a Cumulative plasma cortisol of 1086 ng/kg. Consider `C[C@H](CCC(=O)O)[C@H]1CC[C@H]2[C@@H]3CC[C@@H]4C[C@H](O)CC[C@]4(C)[C@H]3C[C@H](O)[C@]12C` [DOC, deoxycholic acid], for which, where the note is “DOC molar concentration 0.0167 in the intubation medium (PBS)”, the “cumulative response of cortisol to plasma ACTH” value stood at 7042±3243 ng cortisol kg^−1.
